The values below come from patent publication US20220175768A1, “FGFR TYROSINE KINASE INHIBITORS FOR THE TREATMENT OF UROTHELIAL CARCINOMA” (Janssen Pharmaceutica NV, priority 2019, published 2022).

For one test, the system named is urothelial cancer. The experiment in a line: Best response to prior therapy before study enrolment per investigator assessment. In kind it is in vivo, human. The following applies: first-line, across all regimens.
The conditions of test [1]: study in which nine of 10 patients had disease progression with prior immunotherapy; cited from earlier work.

From the text for urothelial cancer: Across all regimens, 184 patients had received first-line platinum-based chemotherapy, 83 had received second-line chemotherapy, and 24 had received third-line chemotherapy before study enrolment.

As for gemcitabine plus cisplatin, the “Best ORR per investigator assessment to prior chemotherapy” value in the test with urothelial cancer was 35%. Consider `COCc1c(-c2cc3cc(C)cc(OC)c3s2)c2c(N)ncnn2c1CN1CCNC(=O)C1` [rogaratinib], for which the “Patients who responded to rogaratinib” value in test [1] is 30%.
